PMC10895799, “Differential contribution of THIK-1 K^+ channels and P2X7 receptors to ATP-mediated neuroinflammation by human microglia” (Journal of Neuroinflammation, 2024)

Experiments:
Assay type in all cases: cell-based
THIK-1 (hKCNK13) [1] = biological target: T1, THIK-1 (hKCNK13) (Homo sapiens, UniProt Q9HB14); assay: radioligand displacement on HEK-hKCNK13 membranes; IC50 from FLIPR thallium flux in HEK293; QPatch IC50 […]
T1 construct: gene KCNK13
T1 sequence (Q9HB14 1-408): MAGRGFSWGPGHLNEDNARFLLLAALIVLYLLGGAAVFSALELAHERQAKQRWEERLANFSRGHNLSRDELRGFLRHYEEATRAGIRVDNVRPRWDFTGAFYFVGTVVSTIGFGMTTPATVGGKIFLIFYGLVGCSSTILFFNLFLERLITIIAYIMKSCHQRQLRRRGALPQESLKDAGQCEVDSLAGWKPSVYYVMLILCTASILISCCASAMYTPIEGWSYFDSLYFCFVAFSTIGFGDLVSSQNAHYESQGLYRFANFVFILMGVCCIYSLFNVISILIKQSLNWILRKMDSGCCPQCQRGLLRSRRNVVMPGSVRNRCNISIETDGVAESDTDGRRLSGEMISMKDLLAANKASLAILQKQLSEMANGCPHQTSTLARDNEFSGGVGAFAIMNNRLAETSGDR

THIK-1 (mKCNK13) = biological target: T2, THIK-1 (mKCNK13) (Mus musculus, UniProt Q8R1P5); assay: FLIPR thallium flux in HEK293 cells; patch clamp of WT and THIK-1 KO microglia
T2 construct: gene Kcnk13
T2 sequence (Q8R1P5 1-405): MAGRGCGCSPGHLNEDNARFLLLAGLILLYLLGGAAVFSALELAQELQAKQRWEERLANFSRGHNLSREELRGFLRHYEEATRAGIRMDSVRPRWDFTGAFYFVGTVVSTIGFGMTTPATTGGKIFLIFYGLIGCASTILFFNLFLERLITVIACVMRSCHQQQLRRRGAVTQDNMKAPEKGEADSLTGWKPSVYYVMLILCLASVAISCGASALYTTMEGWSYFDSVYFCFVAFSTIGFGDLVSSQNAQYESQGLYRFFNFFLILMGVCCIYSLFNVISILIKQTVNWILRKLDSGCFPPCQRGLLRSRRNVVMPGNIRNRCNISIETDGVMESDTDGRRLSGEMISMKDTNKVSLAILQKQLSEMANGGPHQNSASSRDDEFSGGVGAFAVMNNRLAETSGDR

THIK-1 (hKCNK13) [2] = biological target: T1, THIK-1 (hKCNK13); assay: reference blocker in FLIPR thallium flux and QPatch assays of hTHIK-1 HEK cells

Compound	IC50 (THIK-1 (hKCNK13) [1])	IC50 (THIK-1 (mKCNK13))	reference blocker in FLIPR thallium flux and QPatch assays of hTHIK-1 HEK cells (THIK-1 (hKCNK13) [2])
COc1ncc(Cl)cc1C(=O)N(C)Cc1cccc(F)c1 [C100814]	71 nM	61 nM	–
CCCCC[N+](CCCCC)(CCCCC)CCCCC [tetrapentylammonium]	–	–	normalised to controls using the nonselective THIK-1 antagonist tetrapentylammonium (TPA)
